Test [1] addresses T1, Short transient receptor potential channel 4 (Mus musculus, UniProt Q9QUQ5).
T1 sequence (Q9QUQ5 whole entry): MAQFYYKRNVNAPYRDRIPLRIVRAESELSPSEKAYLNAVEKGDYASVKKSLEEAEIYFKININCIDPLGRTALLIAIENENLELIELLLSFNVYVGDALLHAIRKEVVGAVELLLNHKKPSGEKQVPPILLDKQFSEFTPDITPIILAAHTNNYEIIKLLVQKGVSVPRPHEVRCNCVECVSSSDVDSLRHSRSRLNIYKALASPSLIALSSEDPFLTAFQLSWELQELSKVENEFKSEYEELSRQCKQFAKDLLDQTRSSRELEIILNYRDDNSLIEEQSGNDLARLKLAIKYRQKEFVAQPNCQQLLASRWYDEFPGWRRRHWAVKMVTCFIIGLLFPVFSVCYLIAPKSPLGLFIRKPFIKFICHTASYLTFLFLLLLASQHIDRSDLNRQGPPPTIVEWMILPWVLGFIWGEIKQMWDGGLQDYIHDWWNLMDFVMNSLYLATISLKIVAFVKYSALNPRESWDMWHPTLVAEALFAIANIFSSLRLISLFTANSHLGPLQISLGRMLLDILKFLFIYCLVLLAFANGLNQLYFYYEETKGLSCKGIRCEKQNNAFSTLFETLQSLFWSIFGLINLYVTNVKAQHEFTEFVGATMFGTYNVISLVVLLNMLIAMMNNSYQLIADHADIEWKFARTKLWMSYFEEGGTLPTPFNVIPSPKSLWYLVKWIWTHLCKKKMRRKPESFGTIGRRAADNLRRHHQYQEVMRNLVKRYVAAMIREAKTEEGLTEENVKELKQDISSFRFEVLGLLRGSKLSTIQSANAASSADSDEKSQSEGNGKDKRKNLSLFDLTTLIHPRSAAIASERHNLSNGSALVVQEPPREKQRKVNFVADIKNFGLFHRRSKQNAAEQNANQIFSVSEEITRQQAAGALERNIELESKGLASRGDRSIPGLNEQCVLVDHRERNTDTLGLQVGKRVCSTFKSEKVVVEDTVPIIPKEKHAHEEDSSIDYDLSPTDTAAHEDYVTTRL
The experiment in a line: TRPC4 positive allosteric modulators, dose response, cell-based, HEK293 TRPC4/mu-opioid, Fluo-4 calcium, EC20 DAMGO (AID 434941).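 Also: HEK293 cells coexpressing TRPC4 and mu opioid receptor stimulated by EC20 DAMGO.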 The format is functional.

Test [2] is described as follows: cytotoxicity in BJeHLT fibroblasts, dose response, counter-screen for Ras selective lethality project, BJeHLT cells, dry powder (AID 493052). The format is functional, cell-based. The following applies: Homo sapiens. In general terms: Counterscreens check selectivity or assay interference.
A short description of test [3]: viability loss in BJeLR (HRASV12) cells, primary screen, Ras selective lethality project, cell-based, Alamar Blue, dry powder (AID 493045). The format is functional. In general terms: Resazurin is reduced to fluorescent resorufin, in cell work by metabolically active cells.
A short description of test [4]: viability loss in HRASV12 DRD fibroblasts, dose response, cell-based, DRD BJ fibroblasts, dry powder (AID 493049). It counts as functional.
The nature of test [5]: cytotoxicity in BJeH fibroblasts, dose response, counter-screen for Ras selective lethality project, BJeH cells, dry powder (AID 493054). It counts as functional, cell-based.
Test [6] has as its system Saccharomyces cerevisiae. In words: NALP1 inhibitor project selectivity study, Caspase-1/ASC signal blockade IC50 in S. cerevisiae (AID 488863). It counts as functional, organism-based.
Test [7] deals with T2, Heat shock factor protein 1 (Mus musculus, UniProt P38532).
T2 sequence (P38532 whole entry): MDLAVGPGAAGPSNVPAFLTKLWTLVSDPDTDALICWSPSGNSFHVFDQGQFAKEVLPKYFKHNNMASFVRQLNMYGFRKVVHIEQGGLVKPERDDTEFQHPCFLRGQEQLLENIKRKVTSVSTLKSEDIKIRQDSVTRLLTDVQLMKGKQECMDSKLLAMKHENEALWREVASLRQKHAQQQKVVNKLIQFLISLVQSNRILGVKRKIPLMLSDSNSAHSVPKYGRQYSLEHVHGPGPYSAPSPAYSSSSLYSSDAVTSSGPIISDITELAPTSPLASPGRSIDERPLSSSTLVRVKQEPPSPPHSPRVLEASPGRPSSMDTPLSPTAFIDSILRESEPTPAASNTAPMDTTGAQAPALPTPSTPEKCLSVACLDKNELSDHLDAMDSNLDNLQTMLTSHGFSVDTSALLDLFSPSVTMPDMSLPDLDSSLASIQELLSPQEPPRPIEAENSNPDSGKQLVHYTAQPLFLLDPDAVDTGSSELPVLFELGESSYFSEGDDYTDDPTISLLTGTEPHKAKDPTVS
In words: inhibition of MG132-induced HSE-luciferase signal, confirmation, cell-based, NIH3T3, luminescence, dose retest (AID 2382).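 Also: NIH3T3 fibroblasts with HSF1-driven luciferase reporter stressed by proteasome inhibitor MG132; luminescence from HSF1-driven luciferase expression after 8 hours of MG132 stress.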 The format is functional.

Test [8] concerns the target Beta-galactosidase (Escherichia coli, UniProt Q8VNN2). In words: beta-galactosidase enzyme inhibitors and activators, dose response, artefact control for CCR6 antagonist project, biochemical, E. coli enzyme, set 3 (AID 504712). It counts as functional.
Test [9] has as its target T3, Protein RecA (Mycobacterium tuberculosis, UniProt P9WHJ3).
T3 sequence (P9WHJ3 whole entry): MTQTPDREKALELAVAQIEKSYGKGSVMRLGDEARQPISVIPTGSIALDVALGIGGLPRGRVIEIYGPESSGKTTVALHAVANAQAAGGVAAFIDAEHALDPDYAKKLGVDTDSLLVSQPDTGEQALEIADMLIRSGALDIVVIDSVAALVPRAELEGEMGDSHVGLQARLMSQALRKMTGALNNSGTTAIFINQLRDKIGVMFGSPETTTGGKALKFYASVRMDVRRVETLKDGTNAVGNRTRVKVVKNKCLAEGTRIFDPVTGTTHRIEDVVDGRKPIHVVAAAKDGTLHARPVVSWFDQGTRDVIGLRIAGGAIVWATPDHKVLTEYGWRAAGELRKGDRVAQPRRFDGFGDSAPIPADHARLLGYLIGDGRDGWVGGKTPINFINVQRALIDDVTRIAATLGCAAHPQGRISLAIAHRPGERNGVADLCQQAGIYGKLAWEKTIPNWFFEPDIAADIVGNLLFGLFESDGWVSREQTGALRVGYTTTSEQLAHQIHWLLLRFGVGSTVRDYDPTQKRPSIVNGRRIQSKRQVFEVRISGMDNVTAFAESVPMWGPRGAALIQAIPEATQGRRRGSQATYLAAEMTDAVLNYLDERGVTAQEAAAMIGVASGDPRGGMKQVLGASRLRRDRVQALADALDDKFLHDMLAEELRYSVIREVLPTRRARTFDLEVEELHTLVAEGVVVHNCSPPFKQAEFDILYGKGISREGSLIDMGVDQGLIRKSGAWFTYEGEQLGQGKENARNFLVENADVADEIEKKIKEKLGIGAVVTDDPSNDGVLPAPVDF
In words: Fluorescence Cell-Free Homogeneous Dose Retest to Identify Inhibitors of RecA-Intein Splicing Activity. [Related pubchem assays (depositor defined):AID2097, AID2223, AID489010, AID492950]. The format is functional.

The subject of test [10] is CHO. In words: cytotoxicity in TLR9-MyD88 CHO cells, dose response, cytotoxicity control for TLR9-MyD88 binding inhibitor project, cell-based, luminescence (AID 588339).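 Also: CHO cells stably coexpressing TLR9 and MyD88 fusions from primary screen; compound exposure lasted 48 hours before viability readout.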 It counts as functional, hamster. The following applies: Cricetulus griseus.
In test [11] the target is G-protein coupled receptor 35 (Homo sapiens, UniProt Q9HC97). In words: GPR35 antagonists blocking zaprinast-driven arrestin recruitment, primary screen, imaging, U2OS, beta-arrestin-GFP, zaprinast agonist (AID 2058).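 Also: antagonist potency meaning inhibition of agonist-induced arrestin redistribution.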 It counts as functional. Background: Arrestin recruitment assays detect the binding of arrestin to an activated receptor.
Chain of G-protein coupled receptor 35 (Q9HC97 whole entry): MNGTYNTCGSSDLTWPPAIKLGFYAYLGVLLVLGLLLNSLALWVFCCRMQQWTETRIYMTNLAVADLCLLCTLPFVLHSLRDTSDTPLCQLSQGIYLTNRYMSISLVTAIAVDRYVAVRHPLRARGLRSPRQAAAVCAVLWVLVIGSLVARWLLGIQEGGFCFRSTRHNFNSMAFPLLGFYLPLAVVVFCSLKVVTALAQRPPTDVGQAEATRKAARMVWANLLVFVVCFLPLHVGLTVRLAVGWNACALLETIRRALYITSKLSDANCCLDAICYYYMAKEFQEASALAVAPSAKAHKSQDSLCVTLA
In test [12] the test system is HEK293. The experiment in a line: cells. The following applies: Homo sapiens.
Test [13] concerns the target T4, Replicative DNA helicase DnaB (Mycobacterium tuberculosis, UniProt P9WMR3).
T4 sequence (P9WMR3 whole entry): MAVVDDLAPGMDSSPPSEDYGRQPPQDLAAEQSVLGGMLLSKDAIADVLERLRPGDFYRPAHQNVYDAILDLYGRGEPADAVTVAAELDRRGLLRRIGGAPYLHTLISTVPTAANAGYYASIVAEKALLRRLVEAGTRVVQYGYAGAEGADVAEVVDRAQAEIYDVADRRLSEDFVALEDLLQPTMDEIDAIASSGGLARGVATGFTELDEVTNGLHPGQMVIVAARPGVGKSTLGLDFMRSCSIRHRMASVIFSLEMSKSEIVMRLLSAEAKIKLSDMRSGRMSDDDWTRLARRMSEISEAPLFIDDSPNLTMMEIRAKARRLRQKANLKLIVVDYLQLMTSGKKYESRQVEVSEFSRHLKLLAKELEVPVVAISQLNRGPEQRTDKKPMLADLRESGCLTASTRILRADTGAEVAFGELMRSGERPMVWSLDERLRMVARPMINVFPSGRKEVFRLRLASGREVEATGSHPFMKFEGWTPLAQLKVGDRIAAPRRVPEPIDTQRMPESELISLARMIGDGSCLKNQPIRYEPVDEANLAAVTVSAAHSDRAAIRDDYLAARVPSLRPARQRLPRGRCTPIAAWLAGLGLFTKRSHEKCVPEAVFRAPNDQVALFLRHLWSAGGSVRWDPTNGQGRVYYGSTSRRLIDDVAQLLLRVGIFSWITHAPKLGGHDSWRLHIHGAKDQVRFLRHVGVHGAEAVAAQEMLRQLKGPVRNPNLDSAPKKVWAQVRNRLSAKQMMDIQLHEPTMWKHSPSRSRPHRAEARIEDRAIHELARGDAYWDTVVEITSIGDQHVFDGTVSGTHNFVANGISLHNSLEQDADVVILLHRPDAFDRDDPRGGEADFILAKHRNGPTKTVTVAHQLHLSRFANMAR
The experiment in a line: DnaB intein splicing inhibitors, dose response, biochemical, cell-free fluorescence (AID 449749). It counts as functional.

The target of test [14] is NACHT, LRR and PYD domains-containing protein 1 (Homo sapiens, UniProt Q9C000). The experiment in a line: NALP1 inhibitors in yeast, dose response, luminescent (AID 488860). It counts as functional.
Chain of NACHT, LRR and PYD domains-containing protein 1 (Q9C000 1-1212 limits assumed): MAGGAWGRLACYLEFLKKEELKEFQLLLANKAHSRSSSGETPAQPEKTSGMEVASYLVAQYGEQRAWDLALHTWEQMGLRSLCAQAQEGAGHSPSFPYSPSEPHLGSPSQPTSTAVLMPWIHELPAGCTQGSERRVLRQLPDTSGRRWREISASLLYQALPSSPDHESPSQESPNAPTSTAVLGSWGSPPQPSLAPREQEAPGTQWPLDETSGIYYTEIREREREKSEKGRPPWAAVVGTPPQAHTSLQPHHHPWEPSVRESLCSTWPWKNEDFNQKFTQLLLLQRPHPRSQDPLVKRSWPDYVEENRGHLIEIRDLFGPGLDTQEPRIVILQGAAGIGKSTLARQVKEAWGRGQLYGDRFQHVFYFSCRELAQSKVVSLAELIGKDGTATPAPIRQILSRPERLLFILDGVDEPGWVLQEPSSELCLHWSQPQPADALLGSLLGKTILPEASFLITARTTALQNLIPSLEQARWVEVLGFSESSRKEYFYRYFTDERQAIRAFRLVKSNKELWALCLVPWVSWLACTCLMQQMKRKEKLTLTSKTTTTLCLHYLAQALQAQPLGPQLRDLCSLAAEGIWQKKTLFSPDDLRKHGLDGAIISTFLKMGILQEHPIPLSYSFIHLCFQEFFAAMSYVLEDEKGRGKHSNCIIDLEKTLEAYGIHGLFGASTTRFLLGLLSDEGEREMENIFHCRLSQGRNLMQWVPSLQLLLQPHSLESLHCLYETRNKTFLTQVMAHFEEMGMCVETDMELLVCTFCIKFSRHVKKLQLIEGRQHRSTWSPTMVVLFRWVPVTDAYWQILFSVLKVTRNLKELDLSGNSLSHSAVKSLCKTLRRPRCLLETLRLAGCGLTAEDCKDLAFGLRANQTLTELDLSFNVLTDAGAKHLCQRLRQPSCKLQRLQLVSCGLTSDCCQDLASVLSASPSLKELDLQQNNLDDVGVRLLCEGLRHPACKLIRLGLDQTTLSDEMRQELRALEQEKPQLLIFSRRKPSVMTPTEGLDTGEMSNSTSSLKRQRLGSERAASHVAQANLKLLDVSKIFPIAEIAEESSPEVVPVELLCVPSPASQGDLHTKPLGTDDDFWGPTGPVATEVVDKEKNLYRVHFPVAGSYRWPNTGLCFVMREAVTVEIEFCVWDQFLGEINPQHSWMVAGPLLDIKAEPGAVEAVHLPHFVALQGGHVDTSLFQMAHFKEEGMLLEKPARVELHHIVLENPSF
Chain of NACHT, LRR and PYD domains-containing protein 1 (Q9C000 1213-1473 limits assumed): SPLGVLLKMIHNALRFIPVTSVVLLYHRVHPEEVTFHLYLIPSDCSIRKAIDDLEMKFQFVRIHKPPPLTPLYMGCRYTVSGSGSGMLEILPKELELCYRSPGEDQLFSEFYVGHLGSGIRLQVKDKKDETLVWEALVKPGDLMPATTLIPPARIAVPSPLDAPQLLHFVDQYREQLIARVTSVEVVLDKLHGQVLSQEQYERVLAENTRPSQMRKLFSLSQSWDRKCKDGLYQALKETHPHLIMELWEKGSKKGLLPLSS
Test [15] relates to HEK293. In words: cells. The following applies: Homo sapiens. This is another data set of the same source.
Test [16] concerns the target Beta Lactamase (Pseudomonas aeruginosa, UniProt Q932Y6). In words: beta-lactamase reporter inhibitor potency, dose response, artefact control for TLR9-MyD88 binding inhibitor project, BLA reporter cells, FRET fluorescence (AID 588341).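 Also: cell based assay in CHO-K1 cells stably expressing beta-lactamase.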 The format is cell-based.
The target in test [17] is T5, Polyadenylate-binding protein 1 (Homo sapiens, UniProt P11940). In words: PABP inhibition in translation initiation, SAR follow-up (AID 435018). It counts as functional.
T5 sequence (P11940 whole entry): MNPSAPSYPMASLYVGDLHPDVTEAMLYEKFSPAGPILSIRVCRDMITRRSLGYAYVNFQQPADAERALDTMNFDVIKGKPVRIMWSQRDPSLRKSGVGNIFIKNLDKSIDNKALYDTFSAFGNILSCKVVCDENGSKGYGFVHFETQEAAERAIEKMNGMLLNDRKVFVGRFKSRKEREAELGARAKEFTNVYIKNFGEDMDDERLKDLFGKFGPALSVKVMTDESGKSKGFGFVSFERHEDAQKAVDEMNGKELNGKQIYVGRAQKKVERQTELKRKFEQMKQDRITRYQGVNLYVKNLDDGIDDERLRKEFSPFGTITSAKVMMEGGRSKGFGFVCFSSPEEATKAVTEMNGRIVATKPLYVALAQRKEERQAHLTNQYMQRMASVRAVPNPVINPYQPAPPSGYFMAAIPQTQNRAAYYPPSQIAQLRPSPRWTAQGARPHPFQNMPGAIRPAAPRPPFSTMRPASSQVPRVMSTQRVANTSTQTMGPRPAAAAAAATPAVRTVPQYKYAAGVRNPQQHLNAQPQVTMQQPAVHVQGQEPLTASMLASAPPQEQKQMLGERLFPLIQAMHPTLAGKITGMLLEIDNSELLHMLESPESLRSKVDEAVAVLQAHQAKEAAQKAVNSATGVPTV
Test [18] concerns the target T6, Eukaryotic translation initiation factor 4H (Homo sapiens, UniProt Q15056). The experiment in a line: eIF4H inhibition in translation initiation, SAR follow-up (AID 435011). The format is functional.
For test [19], the target named is T5, Polyadenylate-binding protein 1. The experiment in a line: PABP poly(A) RNA binding inhibitors, primary screen, biochemical, fluorescence polarization, uHTS (AID 2014).
Test [20] has as its target T6, Eukaryotic translation initiation factor 4H. In words: human eIF4H binding inhibitors, primary screen, translation initiation inhibitor project, biochemical, uHTS, fluorescence polarization (AID 2012).
Test [21] has as its system Vero. In words: cytotoxicity of synthesized analogs in Vero cells, SAR follow-up, cytotoxicity control for West Nile virus antiviral project, cell-based, set II (AID 2402). The format is functional. The following applies: Chlorocebus sabaeus.
For test [22], the system named is Vero. In words: West Nile virus CPE inhibition, SAR follow-up, cell-based, synthesized analogs (AID 2238). It counts as functional. The following applies: Chlorocebus sabaeus.
The test system of test [23] is Vero. The experiment in a line: cytotoxicity of synthesized analogs in Vero 76, SAR follow-up, cytotoxicity control for West Nile virus antiviral project, Vero 76 cells (AID 2414). It counts as functional. The following applies: Chlorocebus sabaeus.
For test [24], the system named is Vero. The experiment in a line: Vero E6 cell cytotoxicity, SAR follow-up, cytotoxicity control for West Nile virus antiviral project, synthesized analogs (AID 2244). It counts as functional. The following applies: Chlorocebus sabaeus.

Activity calls are given as the source filed them.

Chain of Beta-galactosidase (Q8VNN2 whole entry): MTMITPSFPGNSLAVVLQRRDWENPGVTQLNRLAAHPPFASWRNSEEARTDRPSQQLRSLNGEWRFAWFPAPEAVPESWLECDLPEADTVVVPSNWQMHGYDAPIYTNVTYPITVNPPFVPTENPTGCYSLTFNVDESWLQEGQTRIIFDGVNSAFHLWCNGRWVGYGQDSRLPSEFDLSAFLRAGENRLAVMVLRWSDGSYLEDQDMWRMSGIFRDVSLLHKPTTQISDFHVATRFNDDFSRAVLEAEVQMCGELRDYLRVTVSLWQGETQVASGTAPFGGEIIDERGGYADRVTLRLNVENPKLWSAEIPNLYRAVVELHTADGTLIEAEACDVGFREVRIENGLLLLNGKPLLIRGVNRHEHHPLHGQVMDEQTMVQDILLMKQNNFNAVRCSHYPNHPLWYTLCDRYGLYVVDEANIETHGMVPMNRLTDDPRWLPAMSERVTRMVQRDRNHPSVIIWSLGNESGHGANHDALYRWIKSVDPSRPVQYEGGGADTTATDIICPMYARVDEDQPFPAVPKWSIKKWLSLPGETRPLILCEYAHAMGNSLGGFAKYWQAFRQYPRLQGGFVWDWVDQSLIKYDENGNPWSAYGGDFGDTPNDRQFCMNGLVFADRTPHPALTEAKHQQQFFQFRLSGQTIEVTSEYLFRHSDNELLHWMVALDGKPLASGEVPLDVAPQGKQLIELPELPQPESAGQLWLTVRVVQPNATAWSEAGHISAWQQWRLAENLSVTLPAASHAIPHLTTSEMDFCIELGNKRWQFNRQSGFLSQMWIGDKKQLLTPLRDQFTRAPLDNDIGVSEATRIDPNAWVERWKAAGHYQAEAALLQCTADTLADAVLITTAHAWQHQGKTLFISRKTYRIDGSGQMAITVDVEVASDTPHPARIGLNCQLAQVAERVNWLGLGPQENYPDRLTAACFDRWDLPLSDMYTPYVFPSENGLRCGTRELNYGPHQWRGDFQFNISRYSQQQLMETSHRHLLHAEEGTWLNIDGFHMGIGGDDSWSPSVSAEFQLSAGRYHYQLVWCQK
Chain of Beta Lactamase (Q932Y6 whole entry): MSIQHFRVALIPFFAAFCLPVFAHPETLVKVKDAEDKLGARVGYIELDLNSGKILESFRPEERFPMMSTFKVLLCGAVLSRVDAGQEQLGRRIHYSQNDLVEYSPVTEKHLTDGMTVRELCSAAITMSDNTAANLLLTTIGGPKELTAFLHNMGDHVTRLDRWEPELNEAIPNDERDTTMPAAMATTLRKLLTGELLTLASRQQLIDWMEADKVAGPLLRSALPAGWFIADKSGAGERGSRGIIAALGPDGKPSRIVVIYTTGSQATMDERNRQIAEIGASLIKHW

A word on the EC50: it is the midpoint of the concentration-response curve. Turning to `Cc1ccc(C(C)C)cc1OCCCCN1CCCC1`, in [1], the EC50 is 0.53 µM (active).
For orientation: AC50 means the concentration at which the activity in the assay is half-maximal. Turning to `COc1ccc(C(C(=O)NC2CCCCC2)N(C(=O)CCl)c2ccc(OC)c(Cl)c2)cc1` (centres undefined), the AC50 in [2] was 0.366 µM (active); in test [3] it was 0.122 µM (active); in test [4], 0.126 µM (active); in [5], 0.536 µM (active).
One may read the IC50 as the concentration that inhibits the measured activity by half. For `CC(NC(=O)/C(C#N)=C/c1ccc([N+](=O)[O-])o1)c1ccccc1` (centres undefined), the IC50 in [6] was 9.51 µM (active); in test [8] it was > 66.6 µM (inactive); in test [10], 4.03 µM (active); in test [11] it was 3.85 µM (active); in [14] it was 14.3 µM (active); in test [16] it was 8.23 µM (active). The EC50 was 6.1 µM (active) in test [7], 35 µM (active) in test [9], > 59.6 µM (inactive) in [12] and > 59.6 µM (inactive) in test [15]. For the same compound, in test [13], the AC50 was > 120 µM (inactive).
With `O=C(Nc1cccc2ncccc12)c1ccccc1Cl`, the IC50 in [17] is 1.68 µM (active); in test [18], 9.25 µM (active); in [19], 4 µM (active); in test [20], > 100 µM (inactive).
What is called CC50 is the concentration that lowers cell viability or growth by half. With `O=C(CSc1nc2ccccc2c(=O)n1-c1ccccc1F)Nc1ccc2c(c1)CCC2`, the CC50 in test [21] is > 100 µM (active); in test [23] it was > 66.6 µM (active); in test [24], > 40 µM (active). Besides, the IC50 in test [22] is 16.4 µM (active).

Values taken from ChEMBL document CHEMBL1201862, “PubChem BioAssay data set” (2004).
